Assay results taken from patent US20050119179A1, “Inositol 1, 4, 5-triphosphate receptor (type 1), phosphorylation and modulation by CDC2” (priority 2003, published 2005).

Columns and labels:
IP3 receptor = IP3 receptor function in wild type and phosphorylation deficient mutant DT40 cells before and after activation; assay type: cell-based; details: phosphorylation deficient mutant, FIG. 6
Experimental: The compounds were tested on wild type DT40 cells. The phosphorylation deficient cells were generated by transfecting phosphorylation deficient IP3R mutant cDNAs into triple IP3R deficient DT40 cells. These cells express mutant IP3R with Ser421 and Thr799 replaced by alanine residues. The remaining portion of the receptor is the same as native IP3R.

native cerebellar IP3R = biological target: T1, native cerebellar IP3R (Mus musculus, UniProt P11881); details: read-out: affinity for IP3; cited from earlier work
T1 construct: host or cells: cerebellum

[1] = test system: IP3R1 phosphorylation at Ser421 and Thr799 in DT40 cells; test: IP3R1 phosphorylation in DT40 cells, immunoblot with αSer421 and αThr799; assay type: cell-based; details: 1 μM nocodazole, 16 h, serum-starved DT40 cells, compared to control cells
Experimental: FIG. 4 IP3R1 phosphorylation at Ser421 and Thr799 occurs in vivo. DT40 cells were serum-starved for 24 h and cultured with and without 1 μM nocodazole (control) for 16 h in RPMI-1640 medium containing 10% FBS. After 16 h in culture, cells were washed two times with PBS, and cell lysates were resolved on 6% SDS-PAGE gels and immunoblotted with αSer^421 (A), αThr^799 (B) or αIP3R1 (C).
Cells were equalized for number and lysed in ice-cold lysis buffer containing 0.5% Nonidet P-40, 25 mM HEPES, pH 7.4, 150 mM NaCl, 1 mM EDTA, 1 mM sodium orthovanadate and protease inhibitors. Cell lysates were centrifuged at 13,000× g in a microcentrifuge, and the supernatants were subjected to immunoblotting and immunoprecipitation (Frangioni and Neal 1993; Matter, et al., 1993). The membranes were blocked in TBST (20 mM Tris/HCl, pH 7.4, 0.9% NaCl, and 0.05% Tween 20) containing 5% nonfat dried milk for 1 hr followed by incubation with primary antibodies. After extensive washings, the membranes were incubated with secondary antibody conjugated to horseradish peroxidase (goat anti-rabbit IgG; Pharmingen, Calif.) in TBST containing 5% nonfat dried milk. The immunoblots were analyzed using an ECL detection system (Amersham, Piscataway, N.J.). […] Phosphoproteins were separated by SDS-PAGE and detected by autoradiography as described (Frangioni and Neal 1993; Means 1994). […]

[2] = test system: syncytial cell death induced by HIV infection; details: inhibition of cdc2 activity; cited from earlier work

T1 sequence (P11881 whole entry): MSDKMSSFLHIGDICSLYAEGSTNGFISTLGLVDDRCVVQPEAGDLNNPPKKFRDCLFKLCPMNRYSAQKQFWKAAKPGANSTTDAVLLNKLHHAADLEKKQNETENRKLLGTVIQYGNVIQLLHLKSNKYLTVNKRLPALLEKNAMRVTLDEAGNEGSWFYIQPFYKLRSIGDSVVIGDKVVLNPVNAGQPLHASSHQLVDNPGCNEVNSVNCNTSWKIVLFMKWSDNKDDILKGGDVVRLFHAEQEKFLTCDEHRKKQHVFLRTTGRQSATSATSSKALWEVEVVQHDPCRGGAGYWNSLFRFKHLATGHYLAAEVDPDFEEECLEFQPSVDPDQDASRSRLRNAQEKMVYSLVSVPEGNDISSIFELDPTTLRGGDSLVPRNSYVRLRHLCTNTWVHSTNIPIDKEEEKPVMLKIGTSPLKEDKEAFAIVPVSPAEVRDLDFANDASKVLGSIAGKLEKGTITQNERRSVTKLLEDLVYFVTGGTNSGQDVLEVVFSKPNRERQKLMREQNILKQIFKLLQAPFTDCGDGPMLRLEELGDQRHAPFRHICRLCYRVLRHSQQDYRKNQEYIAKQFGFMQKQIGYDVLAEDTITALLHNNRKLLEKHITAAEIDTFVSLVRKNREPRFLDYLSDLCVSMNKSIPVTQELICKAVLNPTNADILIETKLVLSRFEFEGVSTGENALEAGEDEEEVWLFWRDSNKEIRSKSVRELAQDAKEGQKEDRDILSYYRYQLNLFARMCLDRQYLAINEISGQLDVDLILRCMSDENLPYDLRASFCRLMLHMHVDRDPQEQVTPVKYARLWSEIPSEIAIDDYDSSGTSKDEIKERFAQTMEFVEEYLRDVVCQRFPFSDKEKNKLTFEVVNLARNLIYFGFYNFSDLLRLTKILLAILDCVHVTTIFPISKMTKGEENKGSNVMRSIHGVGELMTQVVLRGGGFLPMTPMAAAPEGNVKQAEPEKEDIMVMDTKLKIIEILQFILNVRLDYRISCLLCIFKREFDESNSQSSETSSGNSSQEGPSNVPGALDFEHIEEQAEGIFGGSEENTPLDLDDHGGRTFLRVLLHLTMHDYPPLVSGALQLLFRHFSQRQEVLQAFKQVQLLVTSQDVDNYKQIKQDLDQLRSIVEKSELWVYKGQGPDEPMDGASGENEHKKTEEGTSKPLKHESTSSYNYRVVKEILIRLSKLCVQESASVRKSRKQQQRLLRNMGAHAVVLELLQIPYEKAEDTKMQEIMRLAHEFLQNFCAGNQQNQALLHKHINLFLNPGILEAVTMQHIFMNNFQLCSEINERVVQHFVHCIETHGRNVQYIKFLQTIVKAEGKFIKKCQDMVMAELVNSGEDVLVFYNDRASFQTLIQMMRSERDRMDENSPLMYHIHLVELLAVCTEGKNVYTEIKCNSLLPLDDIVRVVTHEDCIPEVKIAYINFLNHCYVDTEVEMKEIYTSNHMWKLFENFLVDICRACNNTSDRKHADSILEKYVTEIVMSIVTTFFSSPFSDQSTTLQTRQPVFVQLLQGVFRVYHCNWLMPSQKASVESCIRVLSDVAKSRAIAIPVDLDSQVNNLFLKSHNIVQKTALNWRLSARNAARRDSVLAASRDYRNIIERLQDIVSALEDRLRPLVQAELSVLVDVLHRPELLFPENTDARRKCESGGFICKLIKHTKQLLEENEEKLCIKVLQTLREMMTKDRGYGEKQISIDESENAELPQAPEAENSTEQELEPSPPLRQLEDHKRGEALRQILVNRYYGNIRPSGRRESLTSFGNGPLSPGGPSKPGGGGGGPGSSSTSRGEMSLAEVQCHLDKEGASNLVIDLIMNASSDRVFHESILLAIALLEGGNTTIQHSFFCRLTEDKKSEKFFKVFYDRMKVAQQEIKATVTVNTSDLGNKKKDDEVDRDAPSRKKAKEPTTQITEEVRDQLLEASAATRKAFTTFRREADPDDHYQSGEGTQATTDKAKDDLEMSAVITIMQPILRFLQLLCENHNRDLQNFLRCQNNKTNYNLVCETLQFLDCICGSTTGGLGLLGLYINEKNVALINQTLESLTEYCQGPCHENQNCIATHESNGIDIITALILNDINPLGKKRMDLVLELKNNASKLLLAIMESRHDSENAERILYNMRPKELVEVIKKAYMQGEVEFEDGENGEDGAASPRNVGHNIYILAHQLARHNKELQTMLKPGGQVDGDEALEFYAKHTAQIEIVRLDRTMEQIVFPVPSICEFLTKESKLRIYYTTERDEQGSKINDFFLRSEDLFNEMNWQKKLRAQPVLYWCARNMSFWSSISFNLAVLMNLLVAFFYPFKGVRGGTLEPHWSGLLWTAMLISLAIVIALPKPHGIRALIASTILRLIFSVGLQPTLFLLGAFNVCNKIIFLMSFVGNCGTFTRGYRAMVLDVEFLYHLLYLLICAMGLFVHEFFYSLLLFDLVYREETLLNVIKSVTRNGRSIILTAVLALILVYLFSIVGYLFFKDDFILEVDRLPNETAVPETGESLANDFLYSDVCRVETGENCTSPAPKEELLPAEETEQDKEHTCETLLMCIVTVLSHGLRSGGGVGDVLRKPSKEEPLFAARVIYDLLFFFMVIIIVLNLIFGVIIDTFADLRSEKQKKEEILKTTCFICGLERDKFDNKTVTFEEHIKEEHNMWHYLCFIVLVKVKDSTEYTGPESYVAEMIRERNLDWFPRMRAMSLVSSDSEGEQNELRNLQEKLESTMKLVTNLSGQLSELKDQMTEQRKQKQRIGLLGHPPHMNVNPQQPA

NCCOB(c1ccccc1)c1ccccc1 [2-APB]
IP3 receptor function (IP3 receptor): affect IP3 receptor function

O=P(O)(O)O[C@@H]1[C@H](O)[C@H](O)[C@@H](OP(=O)(O)O)[C@H](OP(=O)(O)O)[C@H]1O [IP3, inositol 1,4,5-trisphosphate]
Kd (native cerebellar IP3R): 83 nM

COC(=O)Nc1nc2ccc(C(=O)c3cccs3)cc2[nH]1 [Nocodazole, nocodazole]
IP3R1 phosphorylation at both Ser421 and Thr799 [1]: greatly enhanced IP3R1 phosphorylation

CC[C@H](CO)Nc1nc(NCc2ccccc2)c2ncn(C(C)C)c2n1 [roscovitine]
syncytial cell death induced by HIV infection [2]: prevented syncytial cell death

Xestospongin
IP3 receptor function (IP3 receptor): affect IP3 receptor function
